In patent publication CN103910677A, “紫堇定碱衍生物的盐” (Shanghai Yizhi Pharmaceutical Technology Co Ltd, priority 2013, dated 2014) one finds aqueous solution stability data, which are given here for one compound.

A short description of the data set: Stability in aqueous solution (extent of free base precipitation from an aqueous solution of the test compound). In kind it is physicochemical. As to conditions: known temperature and known period (not specified), 富马酸盐.

Each structure is given as a SMILES string.

With `COc1cc2c3c(c1O)-c1c(ccc(OC)c1OC)C[C@@H]3N(C)CC2` [Ⅱˉ表示的富马酸根的式(Ⅲ)化合物, 紫堇定碱富马酸盐], the aqueous solution stability result is “特别稳定 and 异常的稳定”.
